Measured values: patent US10214535B2, “Hydroxmethyl piperidine orexin receptor antagonists” (MERCK SHARP & DOHME CORP., priority 2014, dated 2019)
Like-named read-outs stand apart in the source and are kept apart here.

Experiments:
[1] = biological target: human orexin-2 receptor (Homo sapiens (Human), UniProt O43614); assay: hOX2R FLIPR Ca2+ flux assay; assay type: cell-based; conditions: CHO cells expressing the human orexin-2 receptor; agonist 70 pM Ala-6,12 orexin-A
Method: In a typical experiment the OX1 and OX2 receptor antagonistic activity of the compounds of the present invention was determined in accordance with the following experimental method. For intracellular calcium measurements, Chinese hamster ovary (CHO) cells expressing the rat orexin-1 receptor or the human orexin-2 receptor, are grown in Iscove's modified DMEM containing 2 mM L-glutamine, […], 1% hypoxanthine-thymidine supplement, 100 U/ml penicillin, 100 μg/ml streptomycin and 10% heat-inactivated fetal calf serum (FCS). The cells are seeded at 20,000 cells/well into Becton-Dickinson black 384-well clear bottom sterile plates coated with poly-D-lysine. All reagents were from GIBCO-Invitrogen Corp. The seeded plates are incubated overnight at 37° C. and 5% CO2. Ala-6,12 human orexin-A as the agonist is prepared as a 1 mM stock solution in 1% bovine serum albumin (BSA) and diluted in assay buffer (HBSS containing 20 mM HEPES, 0.1% BSA and 2.5 mM probenecid, pH7.4) for use in the assay at a final concentration of 70 pM. Test compounds are prepared as 10 mM stock solution in DMSO, then diluted in 384-well plates, first in DMSO, then assay buffer. On the day of the assay, cells are washed 3 times with 100 μl assay buffer and then incubated for 60 min (37° C., 5% CO2) in 60 μl assay buffer containing 1 μM Fluo-4AM ester, 0.02% pluronic acid, and 1% BSA. The dye loading solution is then aspirated and cells are washed 3 times with 100 μl assay buffer. 30 μl of that same buffer is left in each well. Within the Fluorescent Imaging Plate Reader (FLIPR, Molecular Devices), test compounds are added to the plate in a volume of 25 μl, incubated for 5 min and finally 25 μl of agonist is added. Fluorescence is measured for each well at 1 second intervals for 5 minutes and the height of each fluorescence peak is compared to the height of the fluorescence peak induced by 70 pM Ala-6,12 orexin-A with buffer in place of antagonist. For each antagonist, IC50 value (the concentration of compound needed to inhibit 50% of the agonist response) is determined. Alternatively, compound potency can be assessed by a radioligand binding assay (described in Bergman et. al. Bioorg. Med. Chem. Lett. 2008, 18, 1425-1430) in which the inhibition constant (Ki) is determined in membranes prepared from CHO cells expressing either the OX1 or OX2 receptor. The intrinsic orexin receptor antagonist activity of a compound which may be used in the present invention may be determined by these assays.

[2] = biological target: hOX1R (Homo sapiens, UniProt O43613); assay: hOX1R FLIPR Ca2+ flux assay; assay type: cell-based
[3] = CHO cells expressing orexin-1 receptor, agonist 70 pM Ala-6,12 orexin-A, read-out: hOX1R FLIPR IC50

Chain of human orexin-2 receptor (O43614 whole entry): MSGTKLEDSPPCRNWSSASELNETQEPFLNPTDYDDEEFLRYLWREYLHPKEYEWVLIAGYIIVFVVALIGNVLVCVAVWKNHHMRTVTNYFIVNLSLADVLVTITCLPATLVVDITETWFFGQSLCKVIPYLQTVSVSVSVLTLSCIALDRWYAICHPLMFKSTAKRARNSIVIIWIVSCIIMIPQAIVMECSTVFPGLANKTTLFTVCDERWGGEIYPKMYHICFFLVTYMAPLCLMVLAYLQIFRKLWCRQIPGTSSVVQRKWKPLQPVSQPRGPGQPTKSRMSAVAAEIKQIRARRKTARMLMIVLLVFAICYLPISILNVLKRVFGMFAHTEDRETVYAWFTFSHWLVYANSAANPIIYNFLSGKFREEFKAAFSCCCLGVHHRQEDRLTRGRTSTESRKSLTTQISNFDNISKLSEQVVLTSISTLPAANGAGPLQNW

Row | Compound | IC50 [1] [nM] | IC50 [2, 3] [nM] | IC50 [2] [nM]
1 | COc1c(C#N)ccnc1O[C@@H]1CC[C@@H](CO)N(C(=O)c2cccnc2OCC(F)(F)F)C1 [Example 11, 2-{[(3R,6S)-6-(hydroxymethyl)-1-{[2-(2,2,2-trifluoroethoxy)pyridin-3-yl]carbonyl}piperidin-3-yl]oxy}-3-methoxypyridine-4-carbonitrile] | 9 | 4080 | 
2 | CC1(C)OC(=O)c2c1ccnc2O[C@@H]1CC[C@@H](CO)N(C(=O)c2ccccc2-n2nccn2)C1 [Example 2, 4-{[(3R,6S)-6-(Hydroxymethyl)-1-{[2-(2H-1,2,3-triazol-2-yl)phenyl]carbonyl}piperidin-3-yl]oxy}-1,1-dimethylfuro[3,4-c]pyridin-3(1H)-one] | 21 | > 10000 | 
3 | CCOc1ccccc1C(=O)N1C[C@H](Oc2nccc(C#N)c2OC)CC[C@H]1CO [Example 10, 2-{[(3R,6S)-1-[(2-Ethoxyphenyl)carbonyl]-6-(hydroxymethyl)piperidin-3-yl]oxy}-3-methoxypyridine-4-carbonitrile] | 12 | > 10000 | 
4 | Cc1ccnc(O[C@@H]2CC[C@@H](CO)N(C(=O)c3ccccc3-n3nccn3)C2)c1 [Example 5, [(2S,5R)-5-[(4-methylpyridin-2-yl)oxy]-1-{[2-(2H-1,2,3-triazol-2-yl)phenyl]carbonyl}piperidin-2-yl]methanol] | 18 | 1710 | 
5 | Cc1c(C#N)ccnc1O[C@@H]1CC[C@@H](C(C)(C)O)N(C(=O)c2ccccc2-n2nccn2)C1 [Example 16, 2-{[(3R,6S)-6-(1-hydrox-1-methylethyl)-1-{[2-(2H-1,2,3-triazol-2-yl)phenyl]carbonyl}piperidin-3-yl]oxy}-3-methylpyridine-4-carbonitrile] | 27 | 1330 | 
6 | COc1c(C#N)ccnc1O[C@@H]1CC[C@@H](CO)N(C(=O)c2ccccc2OC(F)F)C1 [Example 13, 2-{[(3R,6S)-1-{[2-(difluoromethoxy)phenyl]carbonyl}-6-(hydroxymethyl)piperidin-3-yl]oxy}-3-methoxypyridine-4-carbonitrile] | 39 | > 10000 | 
7 | N#Cc1ccnc(O[C@@H]2CC[C@@H](CO)N(C(=O)c3ccccc3-n3nccn3)C2)c1 [Example 3, 2-{[(3R,6S)-6-(hydroxymethyl)-1-{[2-(2H-1,2,3-triazol-2-yl)phenyl]carbonyl}piperidin-3-yl]oxy}pyridine-4-carbonitrile] | 17 | > 10000 | 
8 | O=C(c1ccccc1-n1nccn1)N1C[C@H](Oc2cc(OCC(F)F)ccn2)CC[C@H]1CO [Example 6, [(2S,5R)-5-{[4-(2,2-difluoroethoxy)pyridin-2-yl]oxy}-1-{[2-(2H-1,2,3-triazol-2-yl)phenyl]carbonyl}piperidin-2-yl]methanol] | 60 |  | > 10000
9 | COc1c(C#N)ccnc1O[C@@H]1CC[C@@H](CO)N(C(=O)c2cccnc2OC(C)C)C1 [Example 12, 2-{[(3R,6S)-6-(hydroxymethyl)-1-{[2-(1-methylethoxy)pyridin-3-yl]carbonyl}piperidin-3-yl]oxy}-3-methoxypyridine-4-carbonitrile] | 27 | > 10000 | 
10 | Cc1c(C#N)ccnc1O[C@@H]1CC[C@@H](CO)N(C(=O)c2ccccc2-n2nccn2)C1 [Example 7, 2-{[(3R,6S)-6-(hydroxymethyl)-1-{[2-(2H-1,2,3-triazol-2-yl)phenyl]carbonyl}piperidin-3-yl]oxy}-3-methylpyridine-4-carbonitrile] | 8 | 1780 | 
11 | CC(C)(O)[C@@H]1CC[C@@H](Oc2cc(C#N)ccn2)CN1C(=O)c1ccccc1-n1nccn1 [Example 15, 2-{[(3R,6S)-6-(1-Hydroxy-1-methylethyl)-1-{[2-(2H-1,2,3-triazol-2-yl)phenyl]carbonyl}-piperidin-3-yl]oxy}pyridine-4-carbonitrile] | 31 | > 10000 | 
12 | COc1c(C#N)ccnc1O[C@@H]1CC[C@@H](CO)N(C(=O)c2ccccc2OC(F)(F)F)C1 [Example 14, 2-{[(3R,6S)-(hydroxymethyl)-1-{[2-(trifluoromethoxy)phenyl]carbonyl}piperidin-3-yl]oxy}-3-methoxypyridine-4-carbonitrile] | 14 | > 10000 | 
13 | COC(=O)c1c(OC)cccc1O[C@@H]1CC[C@@H](CO)N(C(=O)c2ccccc2-n2nccn2)C1 [Example 1, Methyl 2-{[(3R,6S)-6-(hydroxymethyl)-1-{[2-(2H-1,2,3-triazol-2-yl)phenyl]carbonyl}-piperidin-3-yl]oxy}-6-methoxybenzoate] | 198 | > 10000 | 
14 | COC(=O)c1c(C#N)cccc1O[C@@H]1CC[C@@H](CO)N(C(=O)c2ccccc2-n2nccn2)C1 [Example 4, methyl 2-cyano-6-{[(3R,6S)-6-(hydroxymethyl)-1-{[2-(2H-1,2,3-triazol-2-yl)phenyl]carbonyl}piperidin-3-yl]oxy} benzoate] | 49 | > 10000 | 
